Measurements from patent US20240279684A1, “CYTOSOLIC DELIVERY OF GENOME EDITING TOOLS” (SAPREME TECHNOLOGIES B.V., priority 2021, published 2024).
“Also recorded” adds a separate entry of the source.

Experiments:
Neuro-2A cells = assay: Transfection efficiency of PD-nanoplexes with/without saponin, flow cytometry (GFP); format: cell-based, murine
Protocol: (§1) After biophysical characterisation had established that nanoplexes of the large plasmid DNA and the poly-lysine peptide were formed, cell experiments were performed: transfections. […] Without wishing to be bound by any theory, the latter effect is most likely due to insufficient complexing of DNA. […] JIMT-1-cells (DSMZ no.: ACC 589) and Neuro-2A- cells (DSMZ no.: ACC 148) were transfected with nanoplexes containing relatively large Cas9-GFP-plasmid, with and without GE1741-Co-application or SO1861-Co-application at a non-toxic concentration, when the cell which is to be transfected is considered. The transfection efficiency of all transfection conditions was measured after 48 h incubation time using flow cytometry by comparison to the negative control in terms of fluorescence intensity (for example, cells contacted with the nanoparticles in the absence of saponin). The efficiency of GE1741-based transfections and SO1861-based transfections was also compared with efficiency of Lipofectamine3000™-based transfection of the nanoparticles. Transfections were performed according to protocols commonly known and applied in the field (Clochard et al., 2020; Sama et al., 2018a; Sama et al., 2017; Sama et al., 2018b). […] Transfection efficiency of GE1741-mediated PD-transfection and SO1861-mediated PD-transfections on Neuro-2A cells and JIMT-1 cells was assessed. Cells were transfected with Cas9-GFP-DNA containing PD-nanoplexes, with and without GE1741 or SO1861 (final concentration of the saponin was 2 μg/ml). In Neuro-2A cells and JIMT-1 cells transection efficiency varied between 30% and 40%. Lipofectamin3000 served as reference. n≥3; a significant difference compared to the GE1741-free transfections or SO1861-free transfections was apparent, U-test, p≤0.05.
FIG. 4A, B. Transfection efficiency of saponin-mediated PD (Cas9-GFP)-transfections on Neuro-2A cells (FIG. 4A) and on JIMT-1-cells (FIG. 4B). Neuro-2A cells (A) and JIMT-1 cells (B) were transfected with GFP-DNA (i.e. a plasmid comprising the GFP DNA) bearing PD-nanoplexes or with Cas9-GFP-DNA bearing PD-nanoplexes, with and without the highest non-toxic saponin Co-administration (GE1741 Co-administration at 2 μg/ml or SO1861 Co-administration at 2 μg/ml). While GFP-DNA-transfections reached high efficiencies of around 70%, approximately 40% of all cells expressed GFP after Cas9-GFP-transfection. […] N≥3; *: significant difference compared to the saponin-free transfection (only nuclease), U-test.
JIMT-1-cells (human breast carcinoma) and Neuro-2A-cells (murine neuroblastoma) were transfected with nanoplexes, containing Cas9-GFP-plasmid, with and without saponin GE1741-co-application or saponin SO1861-co-application (that is to say, the saponin is added to the cell culture together with the addition of the nanoparticles comprising the nucleic acid that is to be transfected in the presence of the saponin), in a non-toxic concentration when the saponins are considered. The mass ratios for the peptide and the nucleic acid (plasmid DNA) in the nanoparticles were selected considering the dynamic light scattering (DLS) measurements and considering the aforementioned earlier assessed toxicity and earlier performed efficiency studies. The transfection efficiency of all transfection conditions was measured after 48 h incubation time via flow cytometry by comparison to the negative control in terms of fluorescence intensity (FIG. 4). […]

JIMT-1 cells = assay: as above; format: cell-based, human; details: GFP-DNA PD-nanoplexes, saponin 2 μg/ml
Protocol: as §1, with “Cells were transfected with Cas9-GFP-DNA containing PD-nanoplexes, with and without GE1741 or SO1861 (final concentration of the saponin was 2 μg/ml). In Neuro-2A cells and JIMT-1 cells transection efficiency varied between 30% and 40%. Lipofectamin3000 served as reference. n≥3; a significant difference compared to the GE1741-free transfections or SO1861-free transfections was apparent, U-test, p≤0.05.” left out

[1] = system: cells with which the nanoplexes are contacted; assay: Toxicity of saponin towards cells during transfection; format: cell-based
Source text: It is part of the invention that the method or the use of the invention is characterized in that the nanoparticle comprises the nanoparticle-forming compound, such as a peptide, such as poly-lysine, and the nucleic acid in a mass ratio in a range of 3:1 to 15:1, preferably in a range of 3:1 to 9:1. Typically, the nanoparticle-forming compound is a poly-lysine peptide such as K16 peptide. Preferred is the method wherein the nucleic acid is a plasmid DNA, at least encoding for a Cas, preferably Cas9 (SEQ ID NO: 1), and optionally also encoding for the gRNA, and wherein the nanoparticles comprise in addition to the plasmid DNA at least one poly-lysine peptide, preferably poly-lysine K16 peptide (poly-lysine peptide consisting of sixteen lysine residues). Alternatively, the poly-lysine peptide is a peptide consisting of 8-25 lysine residues, preferably 10-20, more preferably 12-18. High in vitro transfection efficiency is obtained with the method of the invention when nanoparticles encompassing plasmid DNA, K16 peptide are prepared and applied, and are contacted with cells in the presence of a saponin selected from GE1741 and SO1861, and preferably the saponin is GE1741. Typically, the saponin concentration during transfection of the plasmid DNA into selected target cells in vitro is 1 μg/mL-5 μg/mL, preferably 2-4 μg/mL. […] Cells are typically contacted with a composition comprising the nanoplexes and a separate composition comprising the saponin, preferably GE1741. Thus, typically, the nanoparticles comprise the poly-lysine peptide and the nucleic acid, for example at least a plasmid DNA encoding for a Cas, preferably Cas9 (SEQ ID NO: 1), or a Cas with at least 90% sequence identity with this Cas9, preferably 90-99.5% sequence identity, such as 92%, 93%, 94%, 95% or 95-99%.

For CC(=O)OC1C(C)OC(OC2C(C)OC(OC(=O)C34CCC(C)(C)CC3C3=CCC5C6(C)CCC(OC7OC(C(=O)O)C(O)C(OC8OCC(O)C(O)C8O)C7OC7OC(CO)C(O)C(O)C7O)C(C)(C=O)C6CCC5(C)C3(C)CC4O)C(OC3OC(C)C(OC4OCC(O)C(OC5OCC(O)C(O)C5O)C4O)C(O)C3O)C2O)C(O)C1OC(C)=O (centres unmarked) [GE1741], the “transfection efficiency (cells expressing GFP)” value (Neuro-2A cells; GFP-DNA PD-nanoplexes, saponin 2 μg/ml, Neuro-2A) was “around 70%”, the “transfection modulating properties compared to SO1861” value (Neuro-2A cells; large plasmid PD-nanoplexes, Neuro-2A and JIMT-1) was “slightly better transfection modulating properties; also recorded: even more improved transfection efficiency” and the “transfection efficiency compared with Lipofectamine3000” value (Neuro-2A cells; nanoplexes of relatively large DNA plasmid and poly-lysine, saponin present) was “higher than obtainable with current gold standard Lipofectamine3000™”. The “transfection efficiency (cells expressing GFP)” value (JIMT-1 cells) was “around 70%” and the “highest non-toxic saponin Co-administration” value [1] was 2 µg/mL.
